Read-outs that look alike come from different tables or passages of the source.
Tested on: Crl:CD (SD) Br (VAFplus) female rats with spontaneous renal pathology, including mineralization
Details: 104 weeks; for rats with evidence of pelvic/papillary mineralization / rats with evidence of transitional cell hyperplasia in kidneys: n=60; for rats with evidence of pelvic/papillary mineralization: undosed rats approx. 50% (n=120); for rats with evidence of transitional cell hyperplasia in kidneys: undosed rats approx. 63% (n=120)
Experimental: Crl:CD (SD) Br (VAFplus) female rats (available from Charles River Laboratories in Wilmington, Mass.) were orally dosed once daily with 0, 100, 500, or 1500 mg (salt)/kg of lanthanum carbonate for 104 weeks. Crl:CD (SD) Br (VAFplus) female rats develop spontaneous renal pathology, including mineralization, as they age. At week 105, the pathological examination of the kidneys of these rats was performed.
Transitional cell hyperplasia is a response to trauma caused by the unnatural presence of mineral in the tissue, thus mineralization and hyperplasia are closely linked.

## O=C([O-])[O-].O=C([O-])[O-].O=C([O-])[O-].[La+3].[La+3] [lanthanum carbonate]
100 mg (salt)/kg/day oral
  rats with evidence of pelvic/papillary mineralization: ~35%
  rats with evidence of transitional cell hyperplasia in kidneys: ~48%
500 mg (salt)/kg/day oral
  rats with evidence of pelvic/papillary mineralization: ~5%
  rats with evidence of transitional cell hyperplasia in kidneys: ~23%
1500 mg (salt)/kg/day oral
  rats with evidence of pelvic/papillary mineralization: ~1.7%
  rats with evidence of transitional cell hyperplasia in kidneys: ~7%
Oral administration, 100-1500 mg (salt)/kg/day
  effect on renal calcification (study conclusion): reduces renal calcification

— patent US20070104799A1, “Treatment of chronic kidney disease (CKD) subjects using lanthanum compounds” (SHIRE INT[…] B.V., priority 2005, published 2007)
